# Reference: patent US6737383B1, “Herbicidal oxadiazolidines” (priority 1999, dated 2004)
# Tests used:
# [1] = system: bedstraw; test: Test B pre/postemergence bedstraw; type: in vivo, Galium aparine
# How it was run: (§1)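 Response is a visual 0-to-10 score relative to untreated plants, where 0 means no effect and 10 means complete control, taken twelve to sixteen days after application. Treatments went onto soil at planting and onto foliage of 1- to 4-leaf plants, using a surfactant-containing non-phytotoxic solvent.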
# [2] = system: giant foxtail; test: Test B pre/postemergence giant foxtail; type: in vivo, Setaria faberii
# How it was run: as §1
# [3] = system: corn; test: Test B pre/postemergence corn; type: in vivo, Zea mays
# How it was run: as §1
# [4] = system: smallflower flatsedge; test: Test B flood test smallflower flatsedge; type: in vivo, Cyperus difformis
# How it was run: (§2)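 Plants were grown to the 2-leaf stage before treatment with test chemical, then held in a greenhouse for twelve to sixteen days. Injury was visually rated against untreated controls on a 0–10 scale, where 0 is no effect and 10 is complete control.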
# [5] = system: crabgrass; test: Test B pre/postemergence crabgrass; type: in vivo, Digitaria sanguinalis
# How it was run: as §1
# [6] = system: surinam grass; test: Test B pre/postemergence surinam grass; type: in vivo, Brachiaria decumbens
# How it was run: as §1
# [7] = system: cocklebur; test: Test B pre/postemergence cocklebur; type: in vivo, Xanthium strumarium
# How it was run: as §1
# [8] = system: wheat; test: Test B pre/postemergence wheat; type: in vivo, Triticum aestivum
# How it was run: as §1
# [9] = system: morningglory; test: Test B pre/postemergence morningglory; type: in vivo, Ipomoea hederacea
# How it was run: as §1
# [10] = system: wild oat; test: Test B pre/postemergence wild oat; type: in vivo, Avena fatua
# How it was run: as §1
# [11] = system: bamyardgrass; test: Test B flood test barnyardgrass; type: in vivo, Echinochloa crus-galli
# How it was run: as §2
# [12] = system: purple nutsedge; test: Test B pre/postemergence purple nutsedge; type: in vivo, Cyperus rotundus
# How it was run: as §1
# [13] = system: velvetleaf; test: Test B pre/postemergence velvetleaf; type: in vivo, Abutilon theophrasti
# How it was run: as §1
# [14] = system: soybean; test: Test B pre/postemergence soybean; type: in vivo, Glycine max
# How it was run: as §1
# [15] = system: blackgrass; test: Test B pre/postemergence blackgrass; type: in vivo, Alopecurus myosuroides
# How it was run: as §1
# [16] = system: rice; test: Test B flood test rice; type: in vivo, Oryza sativa
# How it was run: as §2
# [17] = system: duck salad; test: Test B flood test duck salad; type: in vivo, Heteranthera limosa
# How it was run: as §2
# [18] = Preemergence, Rate 62 g/ha, scale of 0 to 10 where 0 is no effect and 10 is complete control
# [19] = Preemergence, Rate 250 g/ha, scale of 0 to 10 where 0 is no effect and 10 is complete control
# [20] = Preemergence, Rate 500 g/ha, scale of 0 to 10 where 0 is no effect and 10 is complete control
# [21] = Rate 62 g/ha, Postemergence, scale of 0 to 10 where 0 is no effect and 10 is complete control
# [22] = Rate 125 g/ha, Postemergence, scale 0 to 10
# [23] = Rate 125 g/ha, Preemergence, scale of 0 to 10 where 0 is no effect and 10 is complete control
# [24] = Rate 500 g/ha, Postemergence, scale 0 to 10
# [25] = Rate 62 g/ha, headed Pre-emergence (flood test species), scale 0 to 10 (0 no effect, 10 complete control)
# [26] = Rate 125 g/ha, Pre-emergence, flood test species, scale 0 to 10 where 0 is no effect and 10 is complete control
# [27] = Rate 250 g/ha, Pre-emergence, flood-test species, scale 0 to 10, 0 is no effect, 10 is complete control
# [28] = Rate 500 g/ha, Pre-emergence, flood test species, scale 0 to 10 (0 no effect, 10 complete control)
compound,measurement,setting,value
CC(C)N(C(=O)n1oc(=O)n(CCC(F)=C(F)F)c1=O)c1ccc(F)cc1 [Compound 218],Bedstraw plant response rating,[1]; [18],0
same,Bedstraw plant response rating,[1]; [19],0
same,"Plant response rating, Bedstraw",[1]; [20],3
same,Bedstraw plant response rating,[1]; [21],6
same,Bedstraw plant response rating,[1]; [22],8
same,Bedstraw plant response rating,[1]; [23],0
same,Bedstraw plant response rating,[1]; [24],8
same,Giant foxtail plant response rating,[2]; [18],9
same,Giant foxtail plant response rating,[2]; [19],10
same,"Plant response rating, Giant foxtail",[2]; [20],10
same,Giant foxtail plant response rating,[2]; [21],1
same,Giant foxtail plant response rating,[2]; [22],5
same,Giant foxtail plant response rating,[2]; [23],9
same,"Plant response rating (0 to 10; 0 is no effect, 10 is complete control), Giant foxtail","[2]; Rate 250 g/ha, Postemergence",7
same,Giant foxtail plant response rating,[2]; [24],8
same,Corn plant response rating,[3]; [18],0
same,Corn plant response rating,[3]; [19],0
same,"Plant response rating, Corn",[3]; [20],6
same,Corn plant response rating,[3]; [21],0
same,Corn plant response rating,[3]; [22],0
same,Corn plant response rating,[3]; [23],0
same,"Plant response rating (0 to 10; 0 is no effect, 10 is complete control), Corn","[3]; Rate 250 g/ha, Postemergence",0
same,Corn plant response rating,[3]; [24],0
same,S. Flatsedge plant response rating,[4]; [25],0
same,S. Flatsedge plant response rating,[4]; [26],0
same,S. Flatsedge plant response rating,[4]; [27],0
same,S. Flatsedge plant response rating,[4]; [28],0
same,Crabgrass plant response rating,[5]; [18],4
same,Crabgrass plant response rating,[5]; [19],6
same,"Plant response rating, Crabgrass",[5]; [20],7
same,Crabgrass plant response rating,[5]; [21],1
same,Crabgrass plant response rating,[5]; [22],4
same,Crabgrass plant response rating,[5]; [23],4
same,"Plant response rating (0 to 10; 0 is no effect, 10 is complete control), Crabgrass","[5]; Rate 250 g/ha, Postemergence",5
same,Crabgrass plant response rating,[5]; [24],9
same,B. signalgrass plant response rating,[6]; [18],0
same,B. signalgrass plant response rating,"[6]; Preemergence, Rate 250 g/ha, scale 0 to 10, 0 is no effect, 10 is complete control",6
same,"Plant response rating, B. signalgrass",[6]; [20],7
same,B. signalgrass plant response rating,[6]; [21],0
same,B. signalgrass plant response rating,"[6]; Rate 125 g/ha, Postemergence, scale 0 (no effect) to 10 (complete control)",0
same,B. signalgrass plant response rating,[6]; [23],4
same,"Plant response rating (0 to 10; 0 is no effect, 10 is complete control), B. signalgrass","[6]; Rate 250 g/ha, Postemergence",3
same,B. signalgrass plant response rating,"[6]; Rate 500 g/ha, Postemergence, scale 0 to 10, 0 no effect, 10 complete control",7
same,Cocklebur plant response rating,[7]; [18],0
same,Cocklebur plant response rating,[7]; [19],0
same,"Plant response rating, Cocklebur",[7]; [20],0
same,Cocklebur plant response rating,[7]; [21],0
same,Cocklebur plant response rating,[7]; [22],0
same,Cocklebur plant response rating,[7]; [23],0
same,"Plant response rating (0 to 10; 0 is no effect, 10 is complete control), Cocklebur","[7]; Rate 250 g/ha, Postemergence",3
same,Cocklebur plant response rating,[7]; [24],4
same,Wheat plant response rating,[8]; [18],0
same,Wheat plant response rating,[8]; [19],0
same,"Plant response rating, Wheat",[8]; [20],3
same,Wheat plant response rating,[8]; [21],0
same,Wheat plant response rating,[8]; [22],0
same,Wheat plant response rating,[8]; [23],0
same,"Plant response rating (0 to 10; 0 is no effect, 10 is complete control), Wheat","[8]; Rate 250 g/ha, Postemergence",0
same,Morningglory plant response rating,[9]; [18],0
same,Morningglory plant response rating,[9]; [19],0
same,"Plant response rating, Morningglory",[9]; [20],0
same,Morningglory plant response rating,[9]; [21],3
same,Morningglory plant response rating,[9]; [22],4
same,Morningglory plant response rating,[9]; [23],0
same,"Plant response rating (0 to 10; 0 is no effect, 10 is complete control), Morningglory","[9]; Rate 250 g/ha, Postemergence",8
same,Morningglory plant response rating,[9]; [24],9
same,Wild oats plant response rating,[10]; [18],5
same,Wild oats plant response rating,[10]; [19],7
same,"Plant response rating, Wild oats",[10]; [20],9
same,Wild oats plant response rating,[10]; [21],0
same,Wild oats plant response rating,[10]; [22],0
same,Wild oats plant response rating,[10]; [23],6
same,"Plant response rating (0 to 10; 0 is no effect, 10 is complete control), Wild oats","[10]; Rate 250 g/ha, Postemergence",1
same,Barnyardgrass plant response rating,[11]; [25],0
same,Barnyardgrass plant response rating,[11]; [26],0
same,Barnyardgrass plant response rating,[11]; [27],0
same,Barnyardgrass plant response rating,[11]; [28],0
same,"Plant response rating, Nutsedge",[12]; [20],0
same,Nutsedge plant response rating,[12]; [21],0
same,Nutsedge plant response rating,[12]; [22],0
same,"Plant response rating (0 to 10; 0 is no effect, 10 is complete control), Nutsedge","[12]; Rate 250 g/ha, Postemergence",0
same,Nutsedge plant response rating,[12]; [24],0
same,Velvetleaf plant response rating,[13]; [18],0
same,Velvetleaf plant response rating,[13]; [19],0
same,"Plant response rating, Velvetleaf",[13]; [20],2
same,Velvetleaf plant response rating,[13]; [21],0
same,Velvetleaf plant response rating,[13]; [22],0
same,Velvetleaf plant response rating,[13]; [23],0
same,"Plant response rating (0 to 10; 0 is no effect, 10 is complete control), Velvetleaf","[13]; Rate 250 g/ha, Postemergence",2
same,Soybean plant response rating,[14]; [18],0
same,Soybean plant response rating,[14]; [19],2
same,"Plant response rating, Soybean",[14]; [20],6
same,Soybean plant response rating,[14]; [21],3
same,Soybean plant response rating,[14]; [22],4
same,Soybean plant response rating,[14]; [23],2
same,"Plant response rating (0 to 10; 0 is no effect, 10 is complete control), Soybean","[14]; Rate 250 g/ha, Postemergence",6
same,Soybean plant response rating,[14]; [24],7
same,Blackgrass plant response rating,[15]; [18],8
same,Blackgrass plant response rating,[15]; [19],9
same,"Plant response rating, Blackgrass",[15]; [20],10
same,Blackgrass plant response rating,[15]; [21],5
same,Blackgrass plant response rating,[15]; [22],5
same,Blackgrass plant response rating,[15]; [23],9
same,"Plant response rating (0 to 10; 0 is no effect, 10 is complete control), Blackgrass","[15]; Rate 250 g/ha, Postemergence",7
same,Blackgrass plant response rating,[15]; [24],8
same,Rice plant response rating,[16]; [25],0
same,Rice plant response rating,[16]; [26],0
same,Rice plant response rating,[16]; [27],0
same,Rice plant response rating,[16]; [28],0
same,Ducksalad plant response rating,[17]; [25],0
same,Ducksalad plant response rating,[17]; [26],0
same,Ducksalad plant response rating,[17]; [27],0
same,Ducksalad plant response rating,[17]; [28],0
